Values quoted from earlier work, collected in patent US11464768B2, “Pimavanserin alone or in combination for use in the treatment of Alzheimer's disease psychosis” (ACADIA Pharmaceuticals Inc., priority 2016, dated 2022).

Settings: tartrate salt; cited from earlier work

In the case of “urea, N-[(4-fluorophenyl)methyl]-N-(1-methyl-4-piperidinyl)-N′-[[4-(2-methylpropoxy)phenyl]methyl]-,(2R,3R)-2,3-dihydroxybutanedioate (2:1) [Pimavanserin tartrate]”, the solubility in water is listed as “freely soluble in water”.
